From patent publication US20220378923A1, “BET DEGRADER” (KYOWA KIRIN CO., LTD., priority 2019, published 2022)

Legend:
Assay type in all cases: cell-based, human
[1] = tested on: MYC mRNA expression in SU-DHL-4 cells; assay: Suppressive effect on MYC mRNA expression (Test Example 2); conditions: test compound 100 nmol/L, 6 hours, qRT-PCR corrected by ACTB, GAPDH; for inhibition at 0.1 µM: Homo sapiens, HPRT1, read-out: Suppression Rate of MYC mRNA Expression (%)
Description: The cells were passaged twice a week at a volume of 20-40 mL so as to maintain a cell concentration of 1×10^6 cells/mL or less. The cultured SU-DHL-4 cells were seeded at 6×10^5 cells/well in a transparent 6-well plate (Code No. 140675, Thermo Fisher Scientific). After seeding, the cells were precultured at 37° C. in a carbon dioxide gas incubator for 18 to 25 hours. […] At this time, the final concentration of DMSO was adjusted to be 0.1 vol %. After adding the test compound, the cells were cultured at 37° C. in a carbon dioxide gas incubator for 6 hours. Then, the cells were collected by centrifugation and used for extraction of mRNA. mRNA extraction from cells was performed using Maxwell® 16 LEV simplyRNA Purification Kits (Code No. AS1270, Promega). The mRNA recovery protocol was performed according to the manufacturer's recommended protocol attached to the kit. […] The cDNA conversion was performed, according to the manufacturer's recommended protocol attached to the kit, in 0.020 mL of the reaction solution, and GeneAmp® PCR System 9700 (Applied Biosystems) was used. The cDNA-converted sample was diluted 10-fold by adding 0.180 mL of RNase Free Water (Code No. 10977-023, Thermo Fisher Scientific) and used for quantitative real-time polymerase chain reaction (qRT-PCR). For the calibration curve of qRT-PCR, 0.08 mL of RNase Free Water was added to a cDNA sample using DMSO as a test compound for 5-fold dilution. Further, two 5-fold dilutions were prepared stepwise, and these three samples were used as the calibration curve samples. The following reagents were used for qRT-PCR: TaqMan Gene Expression Assays, Inventoried (Primer probe: Code No. 4331182, Thermo Fisher Scientific, Assay ID: (i) MYC: Hs00153408_m1, (ii) ACTB: Hs01060665_g1, (iii) GAPDH: Hs04420697_g1, (iv) HPRT1: […] Universal PCR Master Mix, no AmpEraseR UNG (Master Mix: Code No. 4367846, Thermo Fisher Scientific). Primer probe (0.001 mL), Master Mix (0.010 mL), water (0.004 mL) and the diluted cDNA sample (0.005 mL) were mixed, and qRT-PCR analysis was performed. For qRT-PCR analysis, QuantStudio 7 Flex (Thermo Fisher Scientific) or 7500 Fast Real-Time PCR (Applied Biosystems) was used to measure in Fast mode and analyze. […] Corrected MYC expression=A/B • A: MYC expression level • B: Geometric mean of expression levels of ACTB, GAPDH and HPRT1 Using the corrected values, the suppression rate of MYC expression for the wells to which the test compound was not added was calculated by the following formula. […] Corrected MYC expression level in a well containing test compound • D: Corrected MYC expression level in a well to which test compound was not added

DCAF16 KO SU-DHL-4 cells = assay: Inhibitory effect on cell viability using SU-DHL-4 DCAF16 knock out (KO) cell line (Test Example 6)
Description: The human DLBCL cell line SU-DHL-4 was purchased from DSMZ. SU-DHL-4 was passaged using RPMI1640 medium containing 10 vol % FBS. After the Cas9 gene was introduced, the cells were cultured in the above medium containing 0.01 mg/mL blasticidin (InvivoGen, Cat No. ant-bl-1). After introduction of sgRNA, the cells were cultured in the above medium containing 0.0001 mg/mL puromycin dihydrochloride (SIGMA, Cat No. P9020-10 ML). The culture conditions were 37° C. and 5% CO2.
Edit-R Lentiviral hEF1α-Blast-Cas9 Nuclease Particles (Cat No. VCAS10126) was used as a lentivirus for expressing Cas9 in human cell lines. Three types of Edit-R Human DCAF16 Lentiviral sgRNA (Cat No. VSGH10142-246568260; DNA target sequence […] (SEQ ID NO: 1), Cat No. VSGH10142-246568262; DNA target sequence […] (SEQ ID NO: 2) and Cat No. VSGH10142-246568263; DNA target sequence […] (SEQ ID NO: 3)) were used as lentiviruses for introducing DCAF16 sgRNA. As a control, Edit-R Lentiviral sgRNA Non-targeting Control #1 (Cat No. VSGC10215) was used. All lentiviruses were purchased from Dharmacon and stored at −80° C. until use.
SU-DHL-4 was suspended at 4×10^5 cells/mL in RPMI 1640 without FBS, 0.25 mL of the suspension was added to a 24-well plate, and the cells were cultured overnight. The next day, 0.003 mL of virus particles of Edit-R Lentiviral hEF1α-Blast-Cas9 Nuclease Particles was added. After culturing in a CO2 incubator for 4 hours, RPMI 1640 containing 0.75 mL of 10 vol % FBS was added. After culturing in a CO2 incubator for about 48 hours, the medium was replaced with RPMI1640 containing 10 vol % FBS, and the cells were cultured in a CO2 incubator. Four days after infection, the medium was replaced with a medium containing 0.01 mg/mL blasticidin (InvivoGen, Cat No. ant-bl-1). Then, the cells were passaged once every 2 to 3 days and thus twice in total (that is, cultured for 1 week) to obtain SU-DHL-4/Cas9, which is a Cas9-introduced SU-DHL-4 cell line.
(6) sgRNA infection SU-DHL-4/Cas9 was suspended at 4×10^5 cells/mL in RPMI 1640 without FBS, 0.25 mL of the suspension was added to a 24-well plate, and the cells were cultured overnight. The next day, a total of 4 types of sgRNA virus particles, 1 type of Control and 3 types targeting DCAF16 were added to the respective wells by 0.03 mL. After culturing in a CO2 incubator for 5 hours, RPMI 1640 containing 0.75 mL of 10 vol % FBS was added.
After culturing in a CO2 incubator for about 48 hours, the medium was replaced with RPMI1640 containing 10 vol % FBS, and the cells were cultured in a CO2 incubator. Four days after infection, the medium was replaced with a medium supplemented with 0.01 mg/mL puromycin dihydrochloride (SIGMA, Cat No. P9020-10 ML). Then, the cells were passaged once or twice a week for 2 weeks, and a cell stock was prepared using CELLBANKER I plus (Takara Bio, Cat No. CB-021). Cell line stock was stored at −80° C. Using Edit-R Lentiviral sgRNA Non-targeting Control #1, the Negative Control sequence was introduced into the SU-DHL-4 cell line, which was referred to as SU-DHL-4 NC strain, and using Edit-R Human DCAF16 Lentiviral sgRNA, […] sequence (SEQ ID NO: 1) was introduced into the SU-DHL-4 cell line, which was referred to as SU-DHL-4 DCAF16 KO1 strain, […] sequence (SEQ ID NO: 2) was introduced into the SU-DHL-4 cell line, which was referred to as SU-DHL-4 DCAF16 KO2 strain, and […] sequence (SEQ ID NO: 3) was introduced into the SU-DHL-4 cell line, which was referred to as SU-DHL-4 DCAF16 KO 3 strain.
The cultured DCAF16 KO SU-DHL-4 cells were seeded at 2000 cells/well in a transparent 384-well plate (Code No. 781182, Greiner bio-one). After seeding, the cells were pre-cultured at 37° C. in a carbon dioxide gas incubator for 18 to 25 hours. […]

SU-DHL-4 cells = assay: Inhibitory effect on cell viability in SU-DHL-4 cell line (Test Example 1); conditions: SU-DHL-4 cells, 72 hours, Cell Counting Kit-8; concentration showing 90% inhibition of cell viability; read-out: SU-DHL-4 Cell Viability Inhibition Rate IC90
Procedure, shortened: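 SU-DHL-4 cells were grown at 37° C. under 5% CO2 in RPMI1640 with 10 vol % heat-inactivated FBS plus penicillin/streptomycin, seeded and precultured for 18 to 25 hours, then exposed to test compound at 0.1 vol % DMSO for 72 hours. Viability was read with Cell Counting Kit-8 by absorbance at 450 nm.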

| IC50 (DCAF16 KO SU-DHL-4 cells; Homo sapiens, DCAF16 KO SU-DHL-4 cells, 72 hours, Cell Counting Kit-8, 50% inhibition of cell viability) [nM] | IC90 (SU-DHL-4 cells) [nM] | Structure (SMILES) | inhibition at 0.1 µM [1] [%] | Activity Attenuation Ratio (DCAF16 KO SU-DHL-4 cells; (SU-DHL-4 DCAF16 KO IC50)/(SU-DHL-4 WT IC50)) | Suppression Rate of MYC mRNA Expression (%) ([1]; HPRT1) |
| --- | --- | --- | --- | --- | --- |
| – | – | CCC(=O)N1c2ccccc2[C@H](Nc2ccc(NC(=O)[C@H](C)NC(=O)c3ccc(N[C@@H]4C[C@H](C)N(C(=O)CC)c5ccccc54)cc3)cc2)C[C@@H]1C (relative stereo) [Compound 2d, 4-{[(2S,4R)-2-Methyl-1-propionyl-1,2,3,4-tetrahydroquinolin-4-yl]amino}-N-{(S)-1-[(4-{[(2S*,4R*)-2-methyl-1-propionyl-1,2,3,4-tetrahydroquinolin-4-yl]amino}phenyl)amino]-1-oxopropan-2-yl}benzamide] | 80 | – | – |
| 75.8 | – | CCC(=O)N1c2ccccc2[C@H](Nc2ccc(NC(=O)CCCC(=O)Nc3ccc(N[C@@H]4C[C@H](C)N(C(=O)CC)c5ccccc54)cc3)cc2)C[C@@H]1C (relative stereo) [Compound 4a, N^1,N^5-bis(4-{[(2S*,4R*)-2-Methyl-1-propionyl-1,2,3,4-tetrahydroquinolin-4-yl]amino}phenyl)glutaramide] | 98.4 | 361 | – |
| – | – | CCC(=O)N1c2ccccc2[C@H](Nc2ccc(NC(=O)CNC(=O)C(F)=C3CCC(N[C@@H]4C[C@H](C)N(C(=O)CC)c5ccccc54)CC3)cc2)C[C@@H]1C (relative stereo) [Compound 15k, 2-Fluoro-2-(4-(((2S*,4R*)-2-methyl-1-propionyl-1,2,3,4-tetrahydroquinolin-4-yl)amino)cyclohexylidene)-N-(2-((4-(((2S,4R)-2-methyl-1-propionyl-1,2,3,4-tetrahydroquinolin-4-yl)amino)phenyl)amino)-2-oxoethyl)acetamide] | 97.4 | – | – |
| – | 5.47 | CCC(=O)N1c2ccccc2[C@H](Nc2ccc(CCC(=O)NCC3(NC4CCC(N[C@@H]5C[C@H](C)N(C(=O)CC)c6ccccc65)CC4)COC3)cc2)C[C@@H]1C (stereo partly shown) [Compound 7h] | – | – | 97.5 |
